According to patent US20250129070A1, “BIFUNCTIONAL ANDROGEN RECEPTOR COMPOUNDS” (priority 2023, published 2025):
pEC50, pIC50: −log10 of the molar value.

Assays:
Type in all cases: cell-based
[1] = system: AR / CBP ternary complex; assay: Ternary complex formation assay (sandwich ELISA, AR capture / CBP detection) in VCaP cell lysates; conditions: 1.5 hours treatment, sandwich ELISA (AR capture, CBP or p300 detection)
Method in brief: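 Anti-AR (AR 441)-coated plates capture AR from lysates of VCaP cells grown ≥3 days at 50K/well in 5% charcoal-stripped FBS, dosed with bifunctional for 1.5 h and lysed 30 min at 4 °C. Co-captured CBP/p300 is probed with rabbit mAb and HRP anti-rabbit, then QuantaRed fluorescence (570/585) is read at 0, 5 and 15 min.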

[2] = system: VCaP cells; assay: VCaP growth inhibition assay; conditions: 30 pM R1881, 9 days, CTG
Method in brief: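 Growth read by CTG luminescence after 9-day exposure to compound (final 100 nM–10 fM, 1:5 steps) plus 30 pM R1881, in phenol red-free DMEM with 5% CSS. Cells pre-incubated 72 h before dosing; IC50 by nonlinear 4-parameter regression.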

[3] = system: HEK-293 cells; assay: HEK-293 growth inhibition assay; conditions: 3 days, CTG
Experimental: Cluster plates are returned to the incubator (37*C/5% CO2) for 24 hours prior to treatment. […] Cluster plates are returned to the incubator for 3 days.
After the 3-day treatment period, 100 uL media was removed from each well by aspiration and 100 uL room temperature CTG reagent (Promega Cat #G7573) is added back to each well. The cluster plates are placed on a shaker and incubated at room temperature for 20 minutes. Following this shaking/incubation, cluster plates are read on a luminometer (BMG ClarioStar). IC50 values are obtained by graphing the RLU data vs. compound concentration with nonlinear regression 4-parameter logistic curves (GraphPad Prism).

Structure (SMILES) | pEC50 [1] | pIC50 [2] | pIC50 [3]
CC(=O)N1CCc2c(c(-c3cccc4cc(-c5ccc(C(=O)NCc6ncc(C(=O)NC7C(C)(C)C(Oc8ccc(C#N)c(Cl)c8)C7(C)C)cn6)nc5)ncc34)nn2C2CCOCC2)C1 (stereo not drawn) [Compound 79, 2-[[[5-[8-(5-acetyl-1-tetrahydropyran-4-yl-6,7-dihydro-4H-pyrazolo[4,3-c]pyridin-3-yl)-3-isoquinolyl]pyridine-2-carbonyl]amino]methyl]-N-[3-(3-chloro-4-cyano-phenoxy)-2,2,4,4-tetramethyl-cyclobutyl]pyrimidine-5-carboxamide] | > 9.00 | 9.00 to 10.00 | < 5.00
CC(=O)N1CCc2c(c(N3CCCc4cc(-c5cnn(C)c5)c(C(F)F)cc43)nn2C2CCN(C(=O)C3CCN(c4ncc(C(=O)NC5C(C)(C)C(Oc6ccc(C#N)c(Cl)c6)C5(C)C)cn4)CC3)CC2)C1 (stereo not drawn) [Compound 22, 2-[4-[4-[5-acetyl-3-[7-(difluoromethyl)-6-(1-methylpyrazol-4-yl)-3,4-dihydro-2H-quinolin-1-yl]-6,7-dihydro-4H-pyrazolo[4,3-c]pyridin-1-yl]piperidine-1-carbonyl]-1-piperidyl]-N-[3-(3-chloro-4-cyano-phenoxy)-2,2,4,4-tetramethyl-cyclobutyl]pyrimidine-5-carboxamide] | > 9.00 | ≥ 10.00 | < 5.00
CC(=O)N1CCc2c(c(N3CCCc4cc(-c5cnn(C)c5)c(C(F)F)cc43)nn2C2CCN(C(=O)CN3CCN(c4ncc(C(=O)NC5C(C)(C)C(Oc6ccc(C#N)c(Cl)c6)C5(C)C)cn4)CC3)CC2)C1 (stereo not drawn) [Compound 96, 2-[4-[2-[4-[5-acetyl-3-[7-(difluoromethyl)-6-(1-methylpyrazol-4-yl)-3,4-dihydro-2H-quinolin-1-yl]-6,7-dihydro-4H-pyrazolo[4,3-c]pyridin-1-yl]-1-piperidyl]-2-oxo-ethyl]piperazin-1-yl]-N-[3-(3-chloro-4-cyano-phenoxy)-2,2,4,4-tetramethyl-cyclobutyl]pyrimidine-5-carboxamide] | > 9.00 | ≥ 10.00 | < 5.00
CNC(=O)N1CCc2c(c(N3CCCc4cc(-c5cnn(C)c5)c(C(F)F)cc43)nn2C2CCN(CC3CCN(c4ncc(C(=O)NC5C(C)(C)C(Oc6ccc(C#N)c(Cl)c6)C5(C)C)cn4)CC3)CC2)C1 (stereo not drawn) [Compound 82, 1-[1-[[1-[5-[[3-(3-chloro-4-cyano-phenoxy)-2,2,4,4-tetramethyl-cyclobutyl]carbamoyl]pyrimidin-2-yl]-4-piperidyl]methyl]-4-piperidyl]-3-[7-(difluoromethyl)-6-(1-methylpyrazol-4-yl)-3,4-dihydro-2H-quinolin-1-yl]-N-methyl-6,7-dihydro-4H-pyrazolo[4,3-c]pyridine-5-carboxamide] | > 9.00 | ≥ 10.00 | < 5.00
CC(=O)N1CCc2c(c(N3CCCc4cc(-c5cnn(C)c5)c(C(F)F)cc43)nn2C2CCN(CC3CCN(c4ncc(C(=O)NC5C(C)(C)C(Oc6ccc(C#N)c(Cl)c6)C5(C)C)cn4)CC3(C)C)CC2)C1 (stereo not drawn) [Compound 356, 2-[4-[[4-[5-acetyl-3-[7-(difluoromethyl)-6-(1-methylpyrazol-4-yl)-3,4-dihydro-2H-quinolin-1-yl]-6,7-dihydro-4H-pyrazolo[4,3-c]pyridin-1-yl]-1-piperidyl]methyl]-3,3-dimethyl-1-piperidyl]-N-[3-(3-chloro-4-cyano-phenoxy)-2,2,4,4-tetramethyl-cyclobutyl]pyrimidine-5-carboxamide] | > 9.00 | ≥ 10.00 | < 6.00
CNC(=O)N1CCc2c(c(N3CCCc4cc(-c5cnn(C)c5)c(C(F)F)cc43)nn2C2CCN(C(=O)COCCC3CCN(c4ncc(C(=O)NC5C(C)(C)C(Oc6ccc(C#N)c(Cl)c6)C5(C)C)cn4)CC3)CC2)C1 (stereo not drawn) [Compound 99, 1-[1-[2-[2-[1-[5-[[3-(3-chloro-4-cyano-phenoxy)-2,2,4,4-tetramethyl-cyclobutyl]carbamoyl]pyrimidin-2-yl]-4-piperidyl]ethoxy]acetyl]-4-piperidyl]-3-[7-(difluoromethyl)-6-(1-methylpyrazol-4-yl)-3,4-dihydro-2H-quinolin-1-yl]-N-methyl-6,7-dihydro-4H-pyrazolo[4,3-c]pyridine-5-carboxamide] | > 9.00 | ≥ 10.00 | < 5.00
CC(=O)N1CCc2c(c(N3CCCc4cc(-c5cnn(C)c5)c(C(F)F)cc43)nn2C2CCN(CC3C(C)CN(c4ncc(C(=O)NC5C(C)(C)C(Oc6ccc(C#N)c(Cl)c6)C5(C)C)cn4)CC3C)CC2)C1 (stereo not drawn) [Compound 350, 2-[4-[[4-[5-acetyl-3-[7-(difluoromethyl)-6-(1-methylpyrazol-4-yl)-3,4-dihydro-2H-quinolin-1-yl]-6,7-dihydro-4H-pyrazolo[4,3-c]pyridin-1-yl]-1-piperidyl]methyl]-3,5-dimethyl-1-piperidyl]-N-[3-(3-chloro-4-cyano-phenoxy)-2,2,4,4-tetramethyl-cyclobutyl]pyrimidine-5-carboxamide] | > 9.00 | ≥ 10.00 | < 6.00
CNC(=O)N1CCc2c(c(N3CCCc4cc(-c5cnn(C)c5)c(C(F)F)cc43)nn2C2CCN(C(=O)COCCOCCCN3CCN(c4ncc(C(=O)NC5C(C)(C)C(Oc6ccc(C#N)c(Cl)c6)C5(C)C)cn4)CC3)CC2)C1 (stereo not drawn) [Compound 102, 1-[1-[2-[2-[3-[4-[5-[[3-(3-chloro-4-cyano-phenoxy)-2,2,4,4-tetramethyl-cyclobutyl]carbamoyl]pyrimidin-2-yl]piperazin-1-yl]propoxy]ethoxy]acetyl]-4-piperidyl]-3-[7-(difluoromethyl)-6-(1-methylpyrazol-4-yl)-3,4-dihydro-2H-quinolin-1-yl]-N-methyl-6,7-dihydro-4H-pyrazolo[4,3-c]pyridine-5-carboxamide] | > 9.00 | 9.00 to 10.00 | < 5.00
CC(=O)N1CCc2c(c(-c3cccc4cc(-c5cnc(CCN(C)c6ncc(C(=O)NC7C(C)(C)C(Oc8ccc(C#N)c(Cl)c8)C7(C)C)cn6)nc5)ncc34)nn2C2CCOCC2)C1 (stereo not drawn) [Compound 74, 2-[2-[5-[8-(5-acetyl-1-tetrahydropyran-4-yl-6,7-dihydro-4H-pyrazolo[4,3-c]pyridin-3-yl)-3-isoquinolyl]pyrimidin-2-yl]ethyl-methyl-amino]-N-[3-(3-chloro-4-cyano-phenoxy)-2,2,4,4-tetramethyl-cyclobutyl]pyrimidine-5-carboxamide] | > 9.00 | 7.00 to 9.00 | < 5.00

Second part, led by results:

pEC50 [1] | pIC50 [2] | Structure (SMILES) | pIC50 [3]
> 9.00 | 9.00 to 10.00 | CC(=O)N1CCc2c(c(-c3cccc4cc(-c5ccc(OCc6ncc(C(=O)NC7C(C)(C)C(Oc8ccc(C#N)c(Cl)c8)C7(C)C)cn6)nc5)ncc34)nn2C2CCOCC2)C1 (stereo not drawn) [Compound 72, 2-[[5-[8-(5-acetyl-1-tetrahydropyran-4-yl-6,7-dihydro-4H-pyrazolo[4,3-c]pyridin-3-yl)-3-isoquinolyl]-2-pyridyl]oxymethyl]-N-[3-(3-chloro-4-cyano-phenoxy)-2,2,4,4-tetramethyl-cyclobutyl]pyrimidine-5-carboxamide] | < 5.00
< 7.00 | < 7.00 | C[C@@H]1CC(=O)Nc2cccc(-c3ccc4c(c3)c(C3CC3)nn4CCCN3CCN(c4ncc(C(=O)NC5C(C)(C)C(Oc6ccc(C#N)c(Cl)c6)C5(C)C)cn4)CC3)c2N1 (stereo partly drawn) [Compound 59, N-[3-(3-chloro-4-cyano-phenoxy)-2,2,4,4-tetramethyl-cyclobutyl]-2-[4-[3-[3-cyclopropyl-5-[(4R)-4-methyl-2-oxo-1,3,4,5-tetrahydro-1,5-benzodiazepin-6-yl]indazol-1-yl]propyl]piperazin-1-yl]pyrimidine-5-carboxamide] | < 5.00
> 9.00 | ≥ 10.00 | CC(=O)N1CCc2c(c(N3CCCc4cc(-c5cnn(C)c5)c(C(F)F)cc43)nn2C2CCN(C(=O)CC3CCN(c4ncc(C(=O)NC5C(C)(C)C(Oc6ccc(C#N)c(Cl)c6)C5(C)C)cn4)CC3)CC2)C1 (stereo not drawn) [Compound 172, 2-[4-[2-[4-[5-acetyl-3-[7-(difluoromethyl)-6-(1-methylpyrazol-4-yl)-3,4-dihydro-2H-quinolin-1-yl]-6,7-dihydro-4H-pyrazolo[4,3-c]pyridin-1-yl]-1-piperidyl]-2-oxo-ethyl]-1-piperidyl]-N-[3-(3-chloro-4-cyano-phenoxy)-2,2,4,4-tetramethyl-cyclobutyl]pyrimidine-5-carboxamide] | < 5.00
< 7.00 | 9.00 to 10.00 | CC(=O)N1CCc2c(c(-c3cccc4cc(-c5cnc(C(=O)NCc6ncc(C(=O)NC7C(C)(C)C(Oc8ccc(C#N)c(Cl)c8)C7(C)C)cn6)nc5)ncc34)nn2C2CCOCC2)C1 (stereo not drawn) [Compound 75, 5-[8-(5-acetyl-1-tetrahydropyran-4-yl-6,7-dihydro-4H-pyrazolo[4,3-c]pyridin-3-yl)-3-isoquinolyl]-N-[[5-[[3-(3-chloro-4-cyano-phenoxy)-2,2,4,4-tetramethyl-cyclobutyl]carbamoyl]pyrimidin-2-yl]methyl]pyrimidine-2-carboxamide] | < 5.00
